The values below come from patent publication US20040018151A1, “Use of anandamide/cannabinoid receptor/acceptor agonists in als screening and treatment methods” (priority 2002, published 2004).

For one data set, the target named is CB1 cannabinoid receptor (Homo sapiens, UniProt P21554). Conditions: background statement; cited from earlier work.
A further data set concerns ALS patients. The data set is described as follows: Open label crossover escalating dose study of Marinol in ALS patients. Format: in vivo, humans.
Data set [1] has as its system hSOD1^G93A mice (ALS mice). As to the kind of experiment: Behaviour and body weight of treated hSOD1^G93A mice. In kind it is in vivo. The method, then: (§1) hSOD1^G93A mice (ALS mice) were administered Δ^9-THC (5 and 10 mg/kg body weight) or vehicle beginning at 60 days of age, i.e., prior to onset of disease signs. The earliest clinical signs of disease observed were tremors and shaking of their limbs when mice were suspended briefly in the air by their tails. These signs were never seen in non-transgenic littermates, but were always seen in hSOD^G93A mice after 75 days. In a subsequent set of experiments, mice were administered 20 mg/kg Δ^9-THC beginning on day 75 when tremors were first observed, i.e., after onset of disease signs. Mice were evaluated on a rotarod to follow disease progression.

Data set [2] deals with primary neuronal cultures prepared from mouse spinal cord. The data set is described as follows: Kainate excitotoxicity in spinal cord neuronal cultures. In kind it is cell-based. Conditions: previously observed.
Data set [3] deals with mouse primary spinal cord cultures. The data set is described as follows: TBH oxidative damage in mixed spinal cord cultures (LDH release). (LDH in the medium is a marker of cell lysis.)
In data set [4] the test system is hSOD1^G93A mice (ALS mice). As to the kind of experiment: Survival of hSOD1^G93A mice. In kind it is in vivo. How it is done: as §1
In these experiments, the treatment effect was to slow the progression of disease (FIG. 1b). Furthermore, treatment with Δ^9-THC improved survival. […] Treatment with 10 mg/ kg Δ^9-THC extended mean survival from 125.9±1.6 days (vehicle, n=15) to 131.8±2.4 days (Δ^9-THC, n=8, p<0.05)(FIG. 2a, c). This represents a […] increase in survival in the 10 mg/ kg Δ^9-THC-treated group. At a (delayed) dose of 20 mg/kg the increase in mean survival was 6.4 days (5.1%).
FIG. 2. Δ^9-THC extends survival in hSOD1^G93A mice. Cumulative survival in hSOD1^G93A mice treated with 10 mg/kg Δ^9-THC (a) or 20 mg/kg Δ^9-THC (b). Mortality of hSOD1^G93A mice treated with Δ^9-THC or vehicle (c).

A further data set relates to rodents. As to the kind of experiment: Motor toxicity in rodents. Particulars: intraperitoneally. In kind it is in vivo. How it is done: For THC the effective dose range should be 10 mg-70 mg/kg/day intraperitoneally in rodents. Motor toxicity is seen at 84 mg/kg/day. An estimate of effective dose range in rodents can be obtained from comparison to other measures of bioactivity of these compounds, e.g. in analgesia and/or anticonvulsant activity. […] However, other routes of administration may include intravenous, inhaled or sub-lingual, formulations such as in a patch or a spray, whereby the doses would most likely be different (e.g. 100 mg/day in a patch) in both rodents and humans.

In data set [5] the test system is hSOD1^G93A mice (ALS mice). The data set is described as follows: Rotarod endurance (disease progression) in hSOD1^G93A mice. In kind it is in vivo. Particulars: for Increase of A50% (age at which endurance declined to 50%) per 10 mg/kg of THC; A.(dose) estimate: nonlinear mixed effects model, rotarod; for Days from 9 to 1 min / Days to 50% endurance: prediction based on model. The method, then: as §1
In order to assess the effect of Δ^9-THC on disease progression, a logistic response curve was fit to the endurance time for each mouse using a nonlinear mixed effects model. For these experiments, each mouse was assessed on the rotarod at 5 and 10 rpm. […] A50% increased 3.3 days (±1.1 day) per 10 mg/kg of THC (2-sided p=0.003). In other words, disease progression as assessed by rotarod performance was delayed 3.3 days in the 10 mg/kg and 6.6 days in the 20 mg/kg group as compared to the vehicle treated animals. This represents a 3% increase in motor performance endurance in the 10 mg/kg group and a 6% increase in the 20 mg/kg group. Note that the increase in the 20 mg/kg group was not affected by the delay in initiation of treatment.
Animals were assessed later in the disease by testing them at the slower rotarod speed (5 rpm). In the data analysis, A50% increased 6.5 days (±0.4 day) when changing from 10 rpm to 5 rpm. However, the rate of decline increased by a factor of 2 in going from 10 rpm to 5 rpm. This rate of decline can also be understood by expressing it as number of days to decline from 9 minutes to 1-minute endurance, based on the fitting equation. At 10 rpm, it took 17.1 (±1.76) days to decline from 9 to 1 minute vs. 8.55 (±0.88) days at 5 rpm. […] FIG. 1a. Δ^9-THC delays progression of disease in hSOD1^G93A mice. Motor function was tested weekly on the rotarod at 10 and 5 rpm. The decline in endurance over time for each animal at 10 rpm is shown in (a). Mouse numbers 1-13 correspond to vehicle treated animals, numbers 1001-1008 correspond to the 10 mg/kg Δ^9-THC treatment group, and 2001-2009 correspond to the 20 mg/kg Δ^9-THC treatment group.
FIG. 1b Logistic response curves showing declines based on fitting a logistic model to observed data. Solid curves are tests at 10 rpm, dashed curves for 5 rpm. The three curves for each rpm are for doses of 0 (vehicle, blue), 10 (mg/kg Δ^9-THC, green) and 20 (mg/kg Δ^9-THC, red). Parameters for curves are based on a nonlinear mixed effects model given by Time=10/(1+exp((Age-A)/B)).

In data set [6] the test system is primary neuronal cultures prepared from mouse spinal cord. Conditions: Abood et al, Neurosci Lett 309:197-201, 2001; cited from earlier work.
A further data set has as its target CB1 (Homo sapiens, UniProt P21554). Conditions: background statement; cited from earlier work.
The mark [7] stands for this setting: rpm 10, dose 10 as printed (r11).

Sequence of CB1 cannabinoid receptor (P21554 whole entry): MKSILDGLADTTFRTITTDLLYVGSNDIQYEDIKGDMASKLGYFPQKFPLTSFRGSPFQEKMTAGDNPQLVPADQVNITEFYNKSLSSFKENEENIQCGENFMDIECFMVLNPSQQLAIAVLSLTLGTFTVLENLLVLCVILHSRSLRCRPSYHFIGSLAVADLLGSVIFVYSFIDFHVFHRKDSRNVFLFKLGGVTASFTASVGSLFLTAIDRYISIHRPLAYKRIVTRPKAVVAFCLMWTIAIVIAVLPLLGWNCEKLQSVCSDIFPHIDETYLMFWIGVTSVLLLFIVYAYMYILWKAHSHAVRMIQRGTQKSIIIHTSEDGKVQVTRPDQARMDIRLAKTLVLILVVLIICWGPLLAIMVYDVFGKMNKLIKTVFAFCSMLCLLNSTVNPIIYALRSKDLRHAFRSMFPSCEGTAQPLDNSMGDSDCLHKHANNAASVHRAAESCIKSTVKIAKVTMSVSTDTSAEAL
Sequence of CB1 (P21554 whole entry): as above

For the compound `CCCCCCC(C)(C)c1cc(O)c2c(c1)OC(C)(C)[C@H]1CC=C(CO)C[C@H]21` [HU-211, dexanabinol], the “Activity at central (CB1) receptor” value on CB1 cannabinoid receptor is “inactive”.

Take `CCCc1cc(O)c2c(c1)OC(C)(C)[C@@H]1CCC(C)=C[C@@H]21` [Propyl-THC]: on CB1 cannabinoid receptor, the “Agonist potency/activity relative to THC” value is “less agonist activity than THC”.

For the compound `CCCCCc1cc(O)c2c(c1)OC(C)(C)[C@@H]1CCC(C)=C[C@@H]21` [Δ^9-THC, delta-9-tetrahydrocannabinol], the “Patients showing reduction in rate of decline of ALSFRS” value in the data set with ALS patients (3 month trial period) is reported as 11 of the 19. Besides, in the data set with ALS patients (25 patients treated, one death unrelated to drug effect), the Serious adverse events entry is on record as “no other serious adverse events”. The Symptomatic benefits result in the data set with ALS patients (ALS patients while taking Marinol) was “Symptomatic benefits were seen in insomnia, appetite, fasciculations and spasticity”. The Tolerability entry is listed as “well tolerated” with ALS patients (ALS patients, oral, escalating dose 2.5-10 mg, 3 months) and “well tolerated” in the data set with ALS patients (humans, 10 mg/day orally). For the same compound, the “Average rate of decline (ALSFRS)” value in the data set with ALS patients (when patients were taking drug) is 27%. For the same compound, the “Weights, difference between treatment groups” value in [1] (5, 10, 20 mg/kg vs vehicle) is recorded as “no significant difference in weights”. In addition, the Overt behavioral changes result in [1] (any of the doses given (5, 10, 20 mg/kg)) is “No overt behavioral changes”. Besides, the “Protection of spinal cord neurons against direct excitotoxin (kainate) exposure, compared with NBQX” value in data set [2] is reported as “as effective as the anti-excitotoxic compound NBQX”. In addition, the Cytotoxicity in [3] (200 μM TBH for 5 hours in the presence of 0.5 μM Δ^9-THC, TBH alone 74 (±14) %, n=4) is recorded as 28 (±8) %. For the same compound, the Survival entry in data set [4] (5 mg/kg) is given as “trend towards increased survival”. In addition, the Mean survival in data set [4] (10 mg/kg, n=8, vehicle 125.9±1.6 days) was found to be 131.8 ± 2.4 days. The “Dose at which motor toxicity is seen” value with rodents stood at 84 mg/kg/day. The “Delay of disease progression as assessed by rotarod performance vs vehicle” value in [5] (10 mg/kg) is 3.3 days; in data set [5] (20 mg/kg, from day 75), 6.6 days. Further, the figures for the “Increase in motor performance endurance” value in data set [5] (10 mg/kg) and in [5] (20 mg/kg) were 3% and 6%, respectively. The “Increase of A50% (age at which endurance declined to 50%) per 10 mg/kg of THC; A.(dose) estimate” value in [5] was 3.29 days; in [5] (listed as THC), 3.3 days. Also, the “Days from 9 to 1 min” value was 8.55 days in data set [5] (rpm 5, dose 10); 8.55 days in data set [5] (rpm 5, dose 20); 17.10 days in [5] (rpm 10, dose 10 (r10)); 17.10 days in [5] (setting [7]). Further, the “Days to 50% endurance” value was 109.8 days in data set [5] (rpm 5, dose 10); 113.1 days in data set [5] (rpm 5, dose 20); 103.3 days in data set [5] (rpm 10, dose 10 (r10)); 106.6 days in data set [5] (setting [7]). In addition, the Kainate toxicity result in data set [6] is recorded as “effectively reduce kainate toxicity”.

As for `CCCCCc1cc(O)c2c(c1)OC(C)(C)C1CCC(CO)=CC21` (stereo not shown) [11-hydroxy-THC], the “Agonist potency/activity relative to THC” value at CB1 cannabinoid receptor is “more active than its parent”.

For the compound `CCCCCCCC/C=C\CCCCCCCC(N)=O` [Oleamide], at CB1, the “Binding to CB1” value is given as “does not bind CB1”.

Turning to `CCCCCCC(C)(C)c1cc(O)c2c(c1)OC(C)(C)[C@@H]1CC=C(CO)C[C@@H]21` [HU-210], the “Activity at central (CB1) receptor” value at CB1 cannabinoid receptor is “retains activity at central (CB1)”.

On to `Cc1c(C(=O)NN2CCCCC2)nn(-c2ccc(Cl)cc2Cl)c1-c1ccc(Cl)cc1` [SR141716A], for which the “Block of the antioxidant effect of Δ^9-THC” value in data set [3] (1 μM SR141716A plus 0.5 μM Δ^9-THC, TBH) is listed as “not blocked”.
